Results: patent US20100247600A1, “THERAPEUTIC DRUG ELUTING IMPLANT COVER AND METHOD OF MAKING THE SAME” (Warsaw Orthopedic, Inc., priority 2009, published 2010)

Assay: Effect of autoclave sterilization on final drug concentration in silicone sleeve
Format: physicochemical
Settings: rifampin in silicone sleeve, starting concentration about 0.0738 wt %, autoclave about 30 minutes
Procedure: FIG. 18 illustrates the effect of sterilization on the final drug concentration, showing the degradation rate versus autoclave time, for example, with a starting concentration of about 0.0738 wt % rifampin in the silicone and running the autoclave about 30 minutes will result in a final concentration of about 0.054 wt % rifampin in the silicone sleeve.
The term “weight percent” or “wt %” means the ratio of the drug weight to the weight of the biocompatible matrix, e.g., the silicone after sterilization, for example, an initial concentration of rifampin of about 0.0738 wt % with about a 30 minute autoclave time will result in a final wt % of about 0.054 in the sterilized product. Other than where expressly indicated, all numbers expressing amounts of materials, concentrations, quantified properties of materials, and so forth, stated in the specification and claims are to be understood as being modified in all instances by the term “about” or “approximately”.

With `CO[C@H]1/C=C/O[C@@]2(C)Oc3c(C)c(O)c4c(O)c(c(/C=N/N5CCN(C)CC5)c(O)c4c3C2=O)NC(=O)/C(C)=C\C=C\[C@H](C)[C@H](O)[C@@H](C)[C@@H](O)[C@@H](C)[C@H](OC(C)=O)[C@@H]1C` [rifampin] the “final concentration after autoclave sterilization” value was “about 0.054 wt %”.
